Here are results for 5 substances from patent US8258258B2, “Dimeric or multimeric microproteins” (BioNTech AG, priority 2005, dated 2012).

For the first test, the system named is TPOR/4Rα hybrid receptor. Description: Ba/F3 luciferase reporter gene assay, TPO competition (antagonist activity). The format is cell-based, human. The following applies: 5 nM TPO and 500 nM of each compound; FIG. 3. On the procedure: The expression vector for the TPOR/4Rα hybrid receptor, pcDNATPOR/4Rα, was constructed as follows. A PCR reaction was performed on a cDNA clone containing the human TPO receptor coding sequence using oligonucleotides TpoR-Xho-lo (5′-[…]-3′; SEQ ID NO.: 18) and TpoR-Xho-up (5′-[…]-3′; SEQ ID No.: 19). The resulting PCR product was digested with XhoI and ligated into similarly digested vector pASKcDNA-NH to yield pASKcDNA-NH-TPOR. pASKcDNA-NH resulted from the subcloning of an NheI/HindIII fragment of pcDNA/4Rα (Krause et al., 2004) in pASK21TETIsendc1/2 (Christmann et al., 1999). From the vector pASKcDNA-NH-TPOR the NheI/HindIII fragment containing the TPOR coding sequence was ligated to similarly digested pcDNA/4Rα to yield pcDNATPOR/4Rα. The STAT6 reporter gene construct pIεTATALuc was generated by insertion of a synthetic Hind III/Bam HI fragment representing the entire promoter/enhancer-sequence from the IL-4 responsive region of the human Iε promoter (Ezernieks et al., 1996) into luciferase expression plasmid pTATALuc+ (Altschmied et al., 1997).
Chain of TPOR/4Rα hybrid receptor (P40238 26-491 limits assumed): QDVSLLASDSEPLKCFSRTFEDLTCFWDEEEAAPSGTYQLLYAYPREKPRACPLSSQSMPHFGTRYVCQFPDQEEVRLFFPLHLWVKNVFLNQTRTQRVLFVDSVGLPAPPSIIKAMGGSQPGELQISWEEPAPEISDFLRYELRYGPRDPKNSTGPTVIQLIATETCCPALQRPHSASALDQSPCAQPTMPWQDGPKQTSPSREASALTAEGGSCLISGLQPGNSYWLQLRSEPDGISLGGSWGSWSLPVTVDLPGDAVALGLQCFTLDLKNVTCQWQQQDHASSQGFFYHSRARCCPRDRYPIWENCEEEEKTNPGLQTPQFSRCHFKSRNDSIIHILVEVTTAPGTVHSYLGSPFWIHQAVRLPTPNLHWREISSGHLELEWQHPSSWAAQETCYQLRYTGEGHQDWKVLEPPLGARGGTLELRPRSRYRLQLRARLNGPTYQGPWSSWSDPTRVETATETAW
The murine pre-B cell line Ba/F3 was cultured as described (Lischke et al., 1995). Cells were transfected using the cell line Nucleofector™ kit V (Amaxa, Germany). Briefly, 8×10^6 cells were starved for 2 h in RPMI 1640/10% FCS, centrifuged and resuspended in 100 μl of transfection reagent V supplemented with 4 μg of expression vector pcDNATPOR/4Rα and 1 μg of reporter gene construct pIεTATALuc. Transfection was performed with the Nucleofector™ device applying program T16. Each transfection batch was recovered in 3.5 ml RPMI 1640/10% FCS and seeded at 2×10^5 cells/100 μl per well in a 96-well cell culture plate. Cells were left untreated for 1 h and then supplemented with various concentrations of hTPO (Immunotools, Germany) and individual microprotein candidates, respectively, to a total volume of 200 μl. For TPO competition assays cell aliquots were preincubated with individual microprotein samples 1 hour before stimulation with hTPO. After incubation for 12 h at 37° C., 5% CO2, cell lysates were prepared and luciferase activity was measured as described previously (Krause et al., 2004).
These cells were transfected with a gene encoding a fusion of the hTPOR extracellular domain and the intracellular 4Rα domain from human […] and co-transfected with a reporter gene construct pIεTATALuc (Krause et al., 2004). […] The same result was obtained for SE-AG-TP-040 in some assays. On the other hand, agonistic activity was shown for all the microproteins so far tested (Table 1).
With “GCVRLHESCLGQQVPCCDPAATCGGTALAiegptlrqwlaaraCKGS (GCVRLHESCLGQQVPCCDPAATCGGTALAIEGPTLRQWLAARACKGS) [SE-AG-TP-040]”, the “Inhibition of TPO receptor activation (TPO antagonist)” value (from here on “Inhibition of TPO receptor activation”) is reported as “able to act as TPO antagonists”. With “GCVRLHESCLGQQVPCCDPAATCiegptlrqwlaaraCKGS (GCVRLHESCLGQQVPCCDPAATCIEGPTLRQWLAARACKGS) [SE-AG-TP-030]”, the “Inhibition of TPO receptor activation” value is “able to act as TPO antagonists”. Still for that read-out and setting: next, “GCiegptlrqwlaaraCKQDSDCLAGCVCGPNGFCGS (GCIEGPTLRQWLAARACKQDSDCLAGCVCGPNGFCGS) [SE-ET-TP-020]”: “able to act as TPO antagonists”. Still for that read-out and setting: next, “iegptlrqwlaara (IEGPTLRQWLAARA) [SE-LN-TP-020, reference compound]”: “able to act as TPO antagonists”. For “GCiegptlrqwlaaCKQDSDCLAGCVCGPNGFCGS (GCIEGPTLRQWLAACKQDSDCLAGCVCGPNGFCGS) [SE-ET-TP-030]”, the “Inhibition of TPO receptor activation” value is “able to act as TPO antagonists”.

For the next test, the system named is platelet count. Description: In vivo platelet expansion test. The following applies: Balb/c mice, 10 and 1000 μg/kg twice daily s.c., after 5 days; FIG. 7. As for the experimental part:
To assess the in vivo function of SE-ET-TP-020, Balb/c mice (n=5) were treated twice daily with 10 and 1000 μg/kg, respectively, SE-ET-TP-020 by subcutaneous injection. After 5 days, platelet count was measured in comparison to corresponding placebo experiments.
For “GCiegptlrqwlaaraCKQDSDCLAGCVCGPNGFCGS (GCIEGPTLRQWLAARACKQDSDCLAGCVCGPNGFCGS) [SE-ET-TP-020]”, the “Platelet count versus placebo” value is on record as “doubling of the platelet count”.
